Data reported in ChEMBL document CHEMBL3525908, “Chronic doxorubicin cardiotoxicity modulates cardiac cytochrome P450-mediated arachidonic acid metabolism in rats” (Drug Metab Dispos, 2012).

Assays:
Rattus norvegicus [1] = test: Toxicity in Sprague-Dawley rat assessed as CYP4F1 gene expression in liver administered as cumulative dose of 15 mg/kg, ip divided into 6 injections for 2 weeks followed by compound washout period of 14 days by RT-PCR analysis relative to control; assay type: organism-based; parameters: dose 15 mg/kg, route intraperitoneal; details: in vivo, 336 h
Rattus norvegicus [2] = test: Toxicity in Sprague-Dawley rat assessed as induction of IL-6 gene expression in kidney administered as cumulative dose of 15 mg/kg, ip divided into 6 injections for 2 weeks followed by compound washout period of 14 days by RT-PCR analysis relative to control; assay type: organism-based; parameters: dose 15 mg/kg, route intraperitoneal; details: 336 h
CYP4F5 = test: Toxicity in Sprague-Dawley rat assessed as induction of CYP4F5 gene expression in kidney administered as cumulative dose of 15 mg/kg, ip divided into 6 injections for 2 weeks followed by compound washout period of 14 days by RT-PCR analysis relative to control; assay type: organism-based; parameters: dose 15 mg/kg, route intraperitoneal
Rattus norvegicus [3] = test: Toxicity in Sprague-Dawley rat assessed as CYP1A2 gene expression in kidney administered as cumulative dose of 15 mg/kg, ip divided into 6 injections for 2 weeks followed by compound washout period of 14 days by RT-PCR analysis relative to control; assay type: organism-based; parameters: dose 15 mg/kg, route intraperitoneal; details: in vivo, 336 h
Rattus norvegicus [4] = test: Toxicity in Sprague-Dawley rat assessed as CYP2E1 gene expression in kidney administered as cumulative dose of 15 mg/kg, ip divided into 6 injections for 2 weeks followed by compound washout period of 14 days by RT-PCR analysis relative to control; assay type: organism-based; parameters: dose 15 mg/kg, route intraperitoneal; details: in vivo, 336 h
Rattus norvegicus [5] = test: Toxicity in Sprague-Dawley rat assessed as CYP4A3 gene expression in kidney administered as cumulative dose of 15 mg/kg, ip divided into 6 injections for 2 weeks followed by compound washout period of 14 days by RT-PCR analysis relative to control; assay type: organism-based; parameters: dose 15 mg/kg, route intraperitoneal; details: in vivo, 336 h
Rattus norvegicus [6] = test: Toxicity in Sprague-Dawley rat assessed as CYP4F1 gene expression in kidney administered as cumulative dose of 15 mg/kg, ip divided into 6 injections for 2 weeks followed by compound washout period of 14 days by RT-PCR analysis relative to control; assay type: organism-based; parameters: dose 15 mg/kg, route intraperitoneal; details: in vivo, 336 h
Rattus norvegicus [7] = test: Induction of omega-1 hydroxylase-mediated arachidonic acid metabolism in Sprague-Dawley rat heart microsomes assessed as 19-HETE formation administered as cumulative dose of 15 mg/kg, ip divided into 6 injections for 2 weeks followed by compound washout period of 14 days by LC-ESI-MS analysis relative to control; assay type: ADME, organism-based; parameters: dose 15 mg/kg, route intraperitoneal; details: 336 h
EPHX2 = test: Cardiotoxicity in Sprague-Dawley rat assessed as increase in EPHX2 gene expression level administered as cumulative dose of 15 mg/kg, ip divided into 6 injections for 2 weeks followed by compound washout period of 14 days by RT-PCR analysis relative to control; assay type: toxicity, organism-based; parameters: dose 15 mg/kg, route intraperitoneal; details: heart
H9c2 [8] = test: Cytotoxicity against rat H9c2 cells assessed as reduction in BNP mRNA expression at 1 uM after 6 hrs in presence of t-AUCB; assay type: cell-based; details: h9c2, 6 h
H9c2 [9] = test: Cytotoxicity against rat H9c2 cells assessed as reduction in ANP mRNA expression at 1 uM after 6 hrs; assay type: cell-based; details: h9c2, 6 h
H9c2 [10] = test: Cytotoxicity against rat H9c2 cells assessed as reduction in BNP mRNA expression at 1 uM after 6 hrs; assay type: cell-based; details: h9c2, 6 h
Rattus norvegicus [11] = test: Induction of CYP450-mediated arachidonic acid metabolism in Sprague-Dawley rat heart microsomes assessed as 8,9-EET formation administered as cumulative dose of 15 mg/kg, ip divided into 6 injections for 2 weeks followed by compound washout period of 14 days by LC-ESI-MS analysis relative to control; assay type: ADME, organism-based; parameters: dose 15 mg/kg, route intraperitoneal; details: 336 h
Rattus norvegicus [12] = test: Induction of CYP450-mediated arachidonic acid metabolism in Sprague-Dawley rat heart microsomes assessed as 11,12-EET formation administered as cumulative dose of 15 mg/kg, ip divided into 6 injections for 2 weeks followed by compound washout period of 14 days by LC-ESI-MS analysis relative to control; assay type: ADME, organism-based; parameters: dose 15 mg/kg, route intraperitoneal; details: 336 h
CYP450 = test: Induction of CYP450-mediated arachidonic acid metabolism in Sprague-Dawley rat heart microsomes assessed as 11,12-DHET formation administered as cumulative dose of 15 mg/kg, ip divided into 6 injections for 2 weeks followed by compound washout period of 14 days by LC-ESI-MS analysis relative to control; assay type: ADME, organism-based; parameters: dose 15 mg/kg, route intraperitoneal; details: probe arachidonic acid
Rattus norvegicus [13] = test: Induction of CYP450-mediated arachidonic acid metabolism in Sprague-Dawley rat heart microsomes assessed as 14,15-DHET formation administered as cumulative dose of 15 mg/kg, ip divided into 6 injections for 2 weeks followed by compound washout period of 14 days by LC-ESI-MS analysis relative to control; assay type: ADME, organism-based; parameters: dose 15 mg/kg, route intraperitoneal; details: 336 h
Rattus norvegicus [14] = test: Toxicity in Sprague-Dawley rat assessed as sEH gene expression in kidney administered as cumulative dose of 15 mg/kg, ip divided into 6 injections for 2 weeks followed by compound washout period of 14 days by RT-PCR analysis; assay type: organism-based; parameters: dose 15 mg/kg, route intraperitoneal; details: in vivo, 336 h
Rattus norvegicus [15] = test: Toxicity in Sprague-Dawley rat assessed as sEH gene expression in liver administered as cumulative dose of 15 mg/kg, ip divided into 6 injections for 2 weeks followed by compound washout period of 14 days by RT-PCR analysis; assay type: organism-based; parameters: dose 15 mg/kg, route intraperitoneal; details: in vivo, 336 h
Rattus norvegicus [16] = test: Toxicity in Sprague-Dawley rat assessed as induction of IL-6 gene expression in liver administered as cumulative dose of 15 mg/kg, ip divided into 6 injections for 2 weeks followed by compound washout period of 14 days by RT-PCR analysis relative to control; assay type: organism-based; parameters: dose 15 mg/kg, route intraperitoneal; details: 336 h
Rattus norvegicus [17] = test: Toxicity in Sprague-Dawley rat assessed as inhibition of CYP2B1 gene expression in liver administered as cumulative dose of 15 mg/kg, ip divided into 6 injections for 2 weeks followed by compound washout period of 14 days by RT-PCR analysis relative to control; assay type: organism-based; parameters: dose 15 mg/kg, route intraperitoneal; details: in vivo, 336 h
Rattus norvegicus [18] = test: Toxicity in Sprague-Dawley rat assessed as inhibition of CYP2B2 gene expression in liver administered as cumulative dose of 15 mg/kg, ip divided into 6 injections for 2 weeks followed by compound washout period of 14 days by RT-PCR analysis relative to control; assay type: organism-based; parameters: dose 15 mg/kg, route intraperitoneal; details: in vivo, 336 h
Rattus norvegicus [19] = test: Toxicity in Sprague-Dawley rat assessed as CYP2J3 gene expression in liver administered as cumulative dose of 15 mg/kg, ip divided into 6 injections for 2 weeks followed by compound washout period of 14 days by RT-PCR analysis relative to control; assay type: organism-based; parameters: dose 15 mg/kg, route intraperitoneal; details: in vivo, 336 h
Rattus norvegicus [20] = test: Cardiotoxicity in Sprague-Dawley rat assessed as increase in p53 gene expression level administered as cumulative dose of 15 mg/kg, ip divided into 6 injections for 2 weeks followed by compound washout period of 14 days by RT-PCR analysis relative to control; assay type: toxicity, organism-based; parameters: dose 15 mg/kg, route intraperitoneal; details: in vivo, 336 h
Rattus norvegicus [21] = test: Cardiotoxicity in Sprague-Dawley rat assessed as increase in Bax gene expression level administered as cumulative dose of 15 mg/kg, ip divided into 6 injections for 2 weeks followed by compound washout period of 14 days by RT-PCR analysis relative to control; assay type: toxicity, organism-based; parameters: dose 15 mg/kg, route intraperitoneal; details: in vivo, 336 h
Rattus norvegicus [22] = test: Cardiotoxicity in Sprague-Dawley rat assessed as increase in beta-MHC gene expression level administered as cumulative dose of 15 mg/kg, ip divided into 6 injections for 2 weeks followed by compound washout period of 14 days by RT-PCR analysis relative to control; assay type: toxicity, organism-based; parameters: dose 15 mg/kg, route intraperitoneal; details: 336 h
Rattus norvegicus [23] = test: Cardiotoxicity in Sprague-Dawley rat assessed as increase in CYP1A1 gene expression level administered as cumulative dose of 15 mg/kg, ip divided into 6 injections for 2 weeks followed by compound washout period of 14 days by RT-PCR analysis relative to control; assay type: toxicity, organism-based; parameters: dose 15 mg/kg, route intraperitoneal; details: in vivo, 336 h

For `COc1cccc2c1C(=O)c1c(O)c3c(c(O)c1C2=O)C[C@@](O)(C(=O)CO)C[C@@H]3O[C@H]1C[C@H](N)[C@H](O)[C@H](C)O1` [DOXORUBICIN], the Activity (Rattus norvegicus [1]) was “Non-toxic”, the fold induction at 15 mg/kg (Rattus norvegicus [2]) was 4.7 and the fold induction at 336 h (CYP4F5) was 1.7. For the same molecule, the Activity (Rattus norvegicus [3]) was “Non-toxic”, the Activity (Rattus norvegicus [4]) was “Non-toxic” and the Activity (Rattus norvegicus [5]) was “Non-toxic”. For the same molecule, the Activity (Rattus norvegicus [6]) was “Non-toxic”, the Activity (Rattus norvegicus [7]) was “Non-toxic” and the fold induction at 336 h (EPHX2) was 1.9. For the same molecule, the Activity (H9c2 [8]) was “Toxic”, the Activity (H9c2 [9]) was “Non-toxic” and the Activity (H9c2 [10]) was “Non-toxic”. The Activity (Rattus norvegicus [11]) was “Active”, the Activity (Rattus norvegicus [12]) was “Active” and the fold induction at 336 h (CYP450) was 1.9. The Ratio (Rattus norvegicus [13]) was 1.3, the Activity (Rattus norvegicus [14]) was “Non-toxic” and the Activity (Rattus norvegicus [15]) was “Non-toxic”. The fold induction at 15 mg/kg (Rattus norvegicus [16]) was 4.5, the Ratio (Rattus norvegicus [17]) was 0.5 and the Ratio (Rattus norvegicus [18]) was 0.5. For the same molecule, the Activity (Rattus norvegicus [19]) was “Non-toxic”, the Ratio (Rattus norvegicus [20]) was 1.7 and the Ratio (Rattus norvegicus [21]) was 1.9. For the same molecule, the fold induction at 15 mg/kg (Rattus norvegicus [22]) was 2.7 and the Activity (Rattus norvegicus [23]) was “Non-toxic”.
